Measurements reported in ChEMBL document CHEMBL4020848, “Antibacterial Activity Affected by the Conformational Flexibility in Glycine-Lysine Based α-Helical Antimicrobial Peptides” (J Med Chem, 2018).
Activity calls are given as the source filed them. No cut-off for these calls is given here.

Key:
[1] = Selectivity index, ratio of HC50 for human RBC to MIC for Escherichia coli ATCC 25922
Staphylococcus aureus [2] = test: Antibacterial activity against Staphylococcus aureus ATCC 25923 after 18 hrs by microdilution method; type: functional; details: ATCC 25923, 18 h
Escherichia coli [3] = test: Induction of membrane permeabilization in Escherichia coli ATCC 25922 assessed as massive cell disruption/collapse at MBC after 1 hr by atomic force microscopic method; type: functional
Staphylococcus aureus [4] = test: Bactericidal activity against clinical isolates of Staphylococcus aureus after 18 hrs by microdilution method; type: functional; details: read-out: MBC=>99.9
[5] = Selectivity index, ratio of HC50 for human RBC to MIC for Pseudomonas aeruginosa ATCC 27853
[6] = Selectivity index, ratio of HC50 for human RBC to MIC for Klebsiella pneumoniae
[7] = Selectivity index, ratio of HC50 for human RBC to MIC for Klebsiella pneumoniae ATCC 13883
Pseudomonas aeruginosa [8] = test: Bactericidal activity against clinical isolates of Pseudomonas aeruginosa after 18 hrs by microdilution method; type: functional; details: read-out: MBC=>99.9
[9] = Selectivity index, ratio of HC50 for human RBC to MIC for Staphylococcus aureus ATCC 25923
Escherichia coli [10] = test: Induction of membrane permeabilization in Escherichia coli ATCC 25922 assessed as propidium iodide uptake preincubated up to 60 mins followed by propidium iodide addition by flow cytometry; type: functional
Escherichia coli [11] = test: Induction of membrane permeabilization in Escherichia coli ATCC 25922 assessed as propidium iodide uptake at MIC preincubated for 15 mins followed by propidium iodide addition by flow cytometry relative to control; type: functional
Acinetobacter baumannii [12] = test: Bactericidal activity against Acinetobacter baumannii ATCC 19606 after 18 hrs by microdilution method; type: functional; details: ATCC 19606 = CIP 70.34 = JCM 6841, 18 h, read-out: MBC=>99.9
Klebsiella pneumoniae [13] = test: Antibacterial activity against Klebsiella pneumoniae ATCC 13883 after 18 hrs by microdilution method; type: functional; details: ATCC 13883, 18 h
Acinetobacter baumannii [14] = test: Bactericidal activity against clinical isolates of Acinetobacter baumannii after 18 hrs by microdilution method; type: functional; details: read-out: MBC=>99.9
[15] = Selectivity index, ratio of HC50 for human RBC to MIC for Acinetobacter baumannii
Escherichia coli [16] = test: Bactericidal activity against clinical isolates of Escherichia coli after 18 hrs by microdilution method; type: functional; details: read-out: MBC=>99.9
[17] = Selectivity index, ratio of HC50 for human RBC to MIC for Pseudomonas aeruginosa
Escherichia coli [18] = test: Growth inhibition of Escherichia coli ATCC 25922 measured every 10 mins for 4 hrs; type: functional
Escherichia coli [19] = test: Induction of membrane permeabilization in Escherichia coli ATCC 25922 assessed as surface indentations at MIC after 1 hr by atomic force microscopic method; type: functional
Escherichia coli [20] = test: Induction of membrane permeabilization in Escherichia coli ATCC 25922 assessed as loss of pili/flagella at MBC after 1 hr by atomic force microscopic method; type: functional
Acinetobacter baumannii [21] = test: Antibacterial activity against clinical isolates of Acinetobacter baumannii after 18 hrs by microdilution method; type: functional
Pseudomonas aeruginosa [22] = test: Antibacterial activity against Pseudomonas aeruginosa ATCC 27853 after 18 hrs by microdilution method; type: functional; details: ATCC 27853, 18 h
Escherichia coli [23] = test: Ratio of MIC to IC50 for Escherichia coli ATCC 25922; type: functional
[24] = Selectivity index, ratio of HC50 for human RBC to MIC for Escherichia coli
Klebsiella pneumoniae [25] = test: Bactericidal activity against Klebsiella pneumoniae ATCC 13883 after 18 hrs by microdilution method; type: functional; details: ATCC 13883, 18 h, read-out: MBC=>99.9
Klebsiella pneumoniae [26] = test: Antibacterial activity against clinical isolates of Klebsiella pneumoniae after 18 hrs by microdilution method; type: functional
Klebsiella pneumoniae [27] = test: Bactericidal activity against clinical isolates of Klebsiella pneumoniae after 18 hrs by microdilution method; type: functional; details: read-out: MBC=>99.9
Staphylococcus aureus [28] = test: Bactericidal activity against Staphylococcus aureus ATCC 25923 after 18 hrs by microdilution method; type: functional; details: ATCC 25923, 18 h, read-out: MBC=>99.9
Escherichia coli [29] = test: Antibacterial activity against Escherichia coli ATCC 25922 after 18 hrs by microdilution method; type: functional; details: ATCC 25922, 18 h
Escherichia coli [30] = test: Induction of membrane permeabilization in Escherichia coli ATCC 25922 assessed as formation of pores/cavities at MIC after 1 hr by atomic force microscopic method; type: functional
Escherichia coli [31] = test: Bactericidal activity against Escherichia coli ATCC 25922 after 18 hrs by microdilution method; type: functional; details: ATCC 25922, 18 h, read-out: MBC=>99.9
Pseudomonas aeruginosa [32] = test: Bactericidal activity against Pseudomonas aeruginosa ATCC 27853 after 18 hrs by microdilution method; type: functional; details: ATCC 27853, 18 h, read-out: MBC=>99.9
[33] = Selectivity index, ratio of HC50 for human RBC to MIC for Acinetobacter baumannii ATCC 19606
Staphylococcus aureus [34] = test: Growth inhibition of Staphylococcus aureus ATCC 25923 measured every 10 mins for 4 hrs; type: functional
Escherichia coli [35] = test: Antibacterial activity against clinical isolates of Escherichia coli after 18 hrs by microdilution method; type: functional
Escherichia coli [36] = test: Induction of membrane permeabilization in Escherichia coli ATCC 25922 assessed as bleb formation at MIC after 1 hr by atomic force microscopic method; type: functional
Staphylococcus aureus [37] = test: Antibacterial activity against clinical isolates of Staphylococcus aureus after 18 hrs by microdilution method; type: functional
Acinetobacter baumannii [38] = test: Antibacterial activity against Acinetobacter baumannii ATCC 19606 after 18 hrs by microdilution method; type: functional; details: ATCC 19606 = CIP 70.34 = JCM 6841, 18 h
[39] = Selectivity index, ratio of HC50 for human RBC to MIC for Staphylococcus aureus
Pseudomonas aeruginosa [40] = test: Antibacterial activity against clinical isolates of Pseudomonas aeruginosa after 18 hrs by microdilution method; type: functional

Substance | Selectivity Index [1] | MIC (Staphylococcus aureus [2]) [µM] | Activity (Escherichia coli [3]) | MBC (Staphylococcus aureus [4]) [µM] | Selectivity Index [5] | Selectivity Index [6] | Selectivity Index [7] | MBC (Pseudomonas aeruginosa [8]) [µM] | Selectivity Index [9] | IC50 (Escherichia coli [10]) [µM] | Activity (Escherichia coli [11]) [%] | MBC (Acinetobacter baumannii [12]) [µM] | MIC (Klebsiella pneumoniae [13]) [µM] | MBC (Acinetobacter baumannii [14]) [µM] | Selectivity Index [15] | MBC (Escherichia coli [16]) [µM] | Selectivity Index [17] | IC50 (Escherichia coli [18]) [µM] | Activity (Escherichia coli [19]) | Activity (Escherichia coli [20]) | other results
H-KIAKGALKALKIAKGALKAL-NH2 | 25 | 16 to 32 | Active | 16 | 6 to 12 | 12 | 25 to 50 | 16 | 3 to 6 | 0.6 | >80 | 2 | 2 to 4 | > 64 | < 1 | > 64 | 6 to 12 | 0.3 | Active | Active | MIC (Acinetobacter baumannii [21]): > 64 µM; MIC (Pseudomonas aeruginosa [22]): 8 to 16 µM; Ratio (Escherichia coli [23]): >10; Selectivity Index [24]: < 1; MBC (Klebsiella pneumoniae [25]): 4 µM; MIC (Klebsiella pneumoniae [26]): 8 µM; MBC (Klebsiella pneumoniae [27]): 16 µM; MBC (Staphylococcus aureus [28]): 32 µM; MIC (Escherichia coli [29]): 4 µM; Activity (Escherichia coli [30]): Active; MBC (Escherichia coli [31]): 16 µM; MBC (Pseudomonas aeruginosa [32]): 16 to 32 µM; Selectivity Index [33]: 50 to 100; IC50 (Staphylococcus aureus [34]): 1.6 µM; MIC (Escherichia coli [35]): 64 µM; Activity (Escherichia coli [36]): Active; MIC (Staphylococcus aureus [37]): 16 µM; MIC (Acinetobacter baumannii [38]): 1 to 2 µM; Selectivity Index [39]: 6; MIC (Pseudomonas aeruginosa [40]): 8 to 16 µM
H-KIALKALKALKALGKALKAL-NH2 | 5 to 10 | 4 | Active | 4 to 8 | < 1 | < 1 | 2 to 6 | 32 | 2.5 | 0.2 | >80 | 2 | 2 to 4 | 32 | < 1 | 32 | < 1 | 0.35 | Active | Active | MIC (Acinetobacter baumannii [21]): 16 to 32 µM; MIC (Pseudomonas aeruginosa [22]): 8 to 16 µM; Selectivity Index [24]: < 1; MBC (Klebsiella pneumoniae [25]): 4 µM; MIC (Klebsiella pneumoniae [26]): 16 to 32 µM; MBC (Klebsiella pneumoniae [27]): 32 to 64 µM; MBC (Staphylococcus aureus [28]): 4 µM; MIC (Escherichia coli [29]): 1 to 2 µM; Activity (Escherichia coli [30]): Active; MBC (Escherichia coli [31]): 2 to 4 µM; MBC (Pseudomonas aeruginosa [32]): 16 µM; Selectivity Index [33]: 5; IC50 (Staphylococcus aureus [34]): 0.4 µM; MIC (Escherichia coli [35]): 32 µM; Activity (Escherichia coli [36]): Active; MIC (Staphylococcus aureus [37]): 2 to 4 µM; MIC (Acinetobacter baumannii [38]): 2 µM; Selectivity Index [39]: 2 to 6; MIC (Pseudomonas aeruginosa [40]): 32 µM
